Assay results reported in paper PMC11742080, “Decavanadate Compound Displays In Vitro and In Vivo Antitumor Effect on Melanoma Models” (Bioinorganic Chemistry and Applications, 2025).
Several values for one entry are separate records, joined by “and”; a condition that tells them apart may be missing. Identical values can stand only once.

Legend:
Swiss albino mice = experiment: In vivo toxicity/safety assessment, 12 days i.p.; conditions: for ALT / AST / Creatinine: plasma
Experimental: In order to investigate the safety of the Mg2Na2V10O28·20H2O compound, three doses of 20, 50, and 100 μg were tested on male Swiss albino mice of ∼20 g weight each. Mice were randomly allocated in four groups of eight mice each. These doses correspond to 1, 2.5, and 5 mg/kg, respectively. A stock solution of 7.5 mg/mL (5.5 mM) was first prepared in PBS (1x). Dilutions were done to obtain 3 solutions of 0.2 mg/mL (146 μM), 0.5 mg/mL (366 μM), and 1 mg/mL (732 μM) in PBS, from which a volume of 100 μL was injected to each mouse, corresponding to the three doses. These doses were chosen based on our previous study. Mice of the CTR group received 100 μL of PBS. Decavanadate compound or vehicle was administered daily by intraperitoneal injection for 12 consecutive days in the morning between 09:00 and 10:00 a.m.
Animals were observed individually for general behavior, toxicity symptoms, and mortality during the first 30 min and then daily during the experiment. The body weights were measured at the beginning and at the end of the […]. On Day 12, blood samples were drawn from the facial vein of each mouse, using capillary tubes, containing heparin (as an anticoagulant component), for biochemical parameters studies. Mice were then sacrificed by cervical dislocation, and their organs (liver and kidney) were excised. The organs were then fixed in 10% buffered formalin for histopathological examination.
Plasma samples were obtained by blood centrifugation at 3000 rpm for 10 min and kept at −20°C. The activities of hepatic enzymes, such as aspartate aminotransferase (AST) and alanine aminotransferase (ALT), and creatinine levels were assessed with commercially available diagnostic kits supplied by Biomaghreb Laboratories (Tunisia). Enzymatic activity was expressed in international units per liter (IU/L). Additionally, we focused on measuring the activity of enzymes involved in hepatic metabolism to evaluate the effect of decavanadate accumulation on liver function. Creatinine level was expressed in mg/L.
Liver and kidney organs in formalin were washed and dehydrated using alcohol. Paraffin-embedded sections were cut at 5-6 μm thickness and stained with hematoxylin and eosin for microscopic examination at 20x and 40x magnification.

[1] = system: B16-F10 murine melanoma cells; experiment: MTT cell viability assay, B16-F10; type: cell-based
Experimental: (§1) The MTT assay was first described as a sensitive, quantitative, and reliable colorimetric assay to measure the viability, proliferation, and activation of cells. Cell viability was assessed at 24 and 72 h of treatment to evaluate cytotoxicity and the effect on cell proliferation of the decavanadate compound, respectively. The concentrations of the decavanadate compound have been determined by weighing the compound in its crystal form and then solubilizing it in distilled water.
(§2) All cell lines were seeded in 96-well plates (Nunc, Roskilde, Denmark) at a density of 10^4 cells per well and were incubated overnight, before treatment with different concentrations of the decavanadate compound. After 24 or 72 h of treatment, fresh media solution containing MTT at 0.5 mg/mL was added to cells and incubated for 3 h at 37°C. The formed formazan crystals were then dissolved in DMSO, and the absorbance was measured at 560 nm using a BioTek EON Microplate Spectrophotometer (Fisher Scientific). Cell viability was expressed as a percentage of the viable cell number of the untreated cells (control [CTR]).
(§3) The concentration of the decavanadate compound required for 50% growth inhibition (IC50 value) was estimated as resulting in a 50% decrease in absorbance, compared to the CTR.

[2] = system: IGR39 human melanoma cells; experiment: MTT cell viability assay, IGR39; type: cell-based
Experimental: as §1, §2, §3

[3] = system: DMBA/croton oil-induced skin lesions in Swiss albino mice; experiment: Chemical-induced (DMBA/croton oil) lesion model in mice; type: in vivo; conditions: cotreatment, 2.5 mg/kg s.c.
Experimental: Two days before the beginning of the experiment, we selected 32 male Swiss albino mice and clipped the hair on their backs in a 2 × 2 cm^2 area. The design of the experiment was performed as reported by Vähätupa et al. (Figure S1). The animals were randomly divided into […] (8 animals in each group): • i. CTR− group: represented the negative CTR group, where mice received 100 μL of acetone only. • ii. CTR+ group: served as the positive CTR group, where mice were treated […] with a single dose of DMBA (50 μg/100 μL acetone) on the shaven area on their backs. Seven days later, croton oil (50 μL/100 μL acetone) was applied twice a week until the end of the experiment (6 weeks). • iii. CT group (cotreatment group): animals received a single dose of DMBA (50 μg/100 μL acetone) on the shaven area on their backs. Seven days later, croton oil (50 μL/100 μL acetone) was applied twice. Then, mice received croton oil and 2.5 mg/kg of the decavanadate compound (dissolved in PBS) by subcutaneous injection on their backs. The Mg2Na2V10O28·20H2O compound was given to animals 15 min after each croton oil application from the third week until the sixth week (the end of the protocol).

[4] = system: IGR39 human melanoma cells; experiment: Cell adhesion assay (collagen, fibronectin, poly-L-lysine); type: cell-based
Experimental: Adhesion assays were performed as previously described by Morjen et al.. Briefly, flat-bottom 96-well microtiter plates were coated for 2 h at 37°C with fibronectin or collagen at 10 μg/mL, as extracellular matrix (ECM) proteins, or poly-L-lysine at 50 μg/mL, as a nonspecific attachment substrate. Plates were then washed with PBS and blocked by BSA. IGR39 cells were harvested and resuspended in DMEM, in the presence or absence (CTR) of the tested molecule. After incubation for 30 min at room temperature, cells were added to coated wells in a volume of 50 μL (50,000 cells) and allowed to adhere to the substrate for 1 h at 37°C. Unattached cells were removed by gently washing three times with an adhesion buffer. Residual attached cells were fixed by 1% glutaraldehyde, stained by 0.1% crystal violet, and lysed with 1% SDS. The absorbance was then measured at 600 nm by a microplate reader.

[5] = Stability of the stock solution (activity retained); type: physicochemical; conditions: 1 mg/mL stock kept at +4°C, experiments repeated after 2 months
Experimental: Four cutaneous melanoma cell lines IGR39, IGR37, SKMEL28, and B16-F10 were treated with increasing concentrations of the decavanadate compound (Figure 3). A stock solution was prepared at a concentration of 1 mg/mL and kept at a temperature of +4°C. The dilutions were made just before the treatment. Figures 3(a) and 3(b) show the dose–response effect of Mg2Na2V10O28·20H2O compound on the viability of different melanoma cell lines, after 24 and 72 h of treatments, respectively.

For “dimagnesium disodium decavanadate icosahydrate [Mg2Na2V10O28·20H2O]”, the Liver histological analysis (Swiss albino mice; 50 μg (2.5 mg/kg), 12 days) was “necrosis”, the Liver histological analysis (Swiss albino mice; 100 μg (5 mg/kg), 12 days) was “lymphohistiocytic inflammatory infiltrate in the portal tract” and the “Biochemical parameters (AST, ALT, creatinine) versus control” value (Swiss albino mice; 1 mg/kg i.p. daily, 12 days) was “comparable to the negative CTR”. For the same substance, the ALT (Swiss albino mice; 2.5 mg/kg i.p. daily, 12 days) was 48.75 ± 2.96 IU/L, the AST (Swiss albino mice; 2.5 mg/kg i.p. daily, 12 days) was 32.83 ± 1.09 IU/L and the Creatinine (Swiss albino mice; 2.5 mg/kg i.p. daily, 12 days) was 2.45 mg/L and 2.45 ± 0.28^∗ mg/L. The Kidney histology (Swiss albino mice; 2.5 mg/kg, 12 days) was “no difference compared to those of the CTR group”, the ALT (Swiss albino mice; 5 mg/kg i.p. daily, 12 days) was 81.67 ± 5.12^∗∗∗ IU/L and the AST (Swiss albino mice; 5 mg/kg i.p. daily, 12 days) was 45.63 ± 1.21^∗∗ IU/L. For the same substance, the Creatinine (Swiss albino mice; 5 mg/kg i.p. daily, 12 days) was 2.80 ± 0.312^∗∗ mg/L, the Kidney histology (Swiss albino mice; 5 mg/kg, 12 days) was “mild interstitial lymphocytic inflammatory infiltrate” and the “Mortality and signs of toxicity (weight loss, behavioral abnormalities)” value (Swiss albino mice; 1, 2.5 or 5 mg/kg, i.p. daily for 12 days, Swiss albino mice) was “No mortality or signs of toxicity”. It also gave an IC50 ([1]; B16-F10, 24 h treatment) of 7.3 µM, an IC50 ([1]; B16-F10, 72 h treatment) of 2.8 µM and an IC50 ([2]; IGR39, 24 h treatment) of 18 µM. The IC50 ([2]; IGR39, 72 h treatment) was 5.2 µM, the “Skin histology (dermal inflammatory infiltrate)” value [3] was “attenuation of this inflammatory state” and the “Mortality and behavior in DMBA/croton oil-treated mice” value ([3]; 6-week protocol) was “neither mortality nor changes in the behavior”. The “Inhibition of adhesion of IGR39 cells on fibronectin” value ([4]; 5 μg/mL) was 47%, the “IC50, IGR39 cell attachment to collagen” value ([4]; collagen 10 μg/mL coating, 30 min pretreatment, 1 h adhesion) was 3.78 µg/mL and the IC50 ([4]; collagen 10 μg/mL coating, 30 min pretreatment, 1 h adhesion, read-out: IC50, IGR39 cell attachment to collagen) was 2.67 µM. For the same substance, the “Reduction of IGR39 cell attachment to collagen” value ([4]; highest concentration 5 μg/mL (3.5 μM)) was 60%, the “Effect on adhesion of IGR39 cells to poly-L-lysine” value ([4]; up to 5 μg/mL, nonspecific substrate) was “no effect” and the “Stability of stock solution” value [5] was “the compound is stable”.
